Structures can show the parent of a compound that is named as a salt. Where two headings read alike, the source gives them in different places.
Key:
[1] = test system: phosphorylated ERK downstream of KRAS G12C in MIA PaCa2 cells; assay: Cell p-ERK detection experiment (HTRF) in MIA PaCa2; assay type: cell-based, human; conditions: read-out: p-ERK IC50
Method in brief: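 Phospho-ERK (T202/Y204) measured by HTRF after 30 min lysis and 4 h antibody incubation in MIA PaCa2 (KRAS G12C) cells, seeded at 2.5E4 per well and treated 2 h with compounds in 3.16-fold steps, final DMSO 0.1%. IC50 from a four-parameter fit of percent inhibition relative to DMSO and blank wells.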

[2] = molecular target: T1, KRAS G12C (Homo sapiens, UniProt P01116, G12C); assay: KRAS G12C NEA-HTRF experiment (SOS1-catalyzed displacement of GDP by GTP); assay type: biochemical
T1 construct: purchased Reactionbiology
T1 sequence (P01116 1-188 isoform P01116-2 G12C): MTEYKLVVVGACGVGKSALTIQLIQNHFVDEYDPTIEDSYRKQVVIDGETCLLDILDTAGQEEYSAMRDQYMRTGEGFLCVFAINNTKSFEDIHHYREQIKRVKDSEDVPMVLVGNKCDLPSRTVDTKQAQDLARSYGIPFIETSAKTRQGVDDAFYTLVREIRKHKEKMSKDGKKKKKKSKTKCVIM
Method in brief: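 His-tagged KRAS G12C preloaded with DY647-GDP was preincubated 15 min at 20 °C with compound, then exchanged with SOS1 (0.2 μM working solution) and GTP (200 μM working solution) for 2 h at 20 °C in the dark. HTRF 665/615 nm ratio with anti-His-Tb was normalised to T0 and no-compound controls; IC50 by four-parameter fit.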

[3] = Homo sapiens, MIA PaCa-2, 2 h, MIA PaCa2 cells, 2 hours with compound, Advance ERK phospho-T202/Y204 HTRF kit

SMILES | IC50 [1, 3] | IC50 [2] | IC50 ([1]; Homo sapiens, MIA PaCa-2, 2 h) | IC50 ([1]; MIA PaCa2 cells, 2 hours with compound, Advance ERK phospho-T202/Y204 HTRF kit)
C=CC(=O)N1CCN2C(=O)c3c(N4CC[C@@H]4C)nc(-c4c(O)cccc4F)c(Cl)c3OC[C@H]2C1 [Z68, (6aR)-8-acryloyl-1-((S)-2-methylazetidin-1-yl)-4-chloro-3-(2-fluoro-6-hydroxyphenyl)-6,6a,7,8,9,10-hexahydro-12H-pyrazino[2,1-c]pyrido[3,4-f][1,4]oxazepin-12-one] | 88 nM | 88 nM |  | 
C=CC(=O)N1CCN2C(=O)c3c(N4CC(O)CC4(C)C)nc(-c4c(O)cccc4F)c(F)c3OC[C@H]2C1 (stereo partly drawn) [Z256, (6aR)-8-acryloyl-4-fluoro-3-(2-fluoro-6-hydroxyphenyl)-1-(4-hydroxy-2,2-dimethylpyrrolidin-1-yl)-6,6a,7,8,9,10-hexahydro-12H-pyrazino[2,1-c]pyrido[3,4-f][1,4]oxazepin-12-one] | 43 nM | 64 nM |  | 
C=CC(=O)N1CCN2C(=O)c3c(N4CC(N(C)C5COC5)CC4(C)C)nc(-c4c(O)cccc4F)c(Cl)c3OC[C@H]2C1 (single isomer, unassigned) [Z331-1] | 6 nM | 5 nM |  | 
C=CC(=O)N1CCN2C(=O)c3c(N4CCN(C)C(C)(C)C4)nc(-c4ccccc4F)c(Cl)c3OC[C@H]2C1 [Z463, (R)-8-acryloyl-4-chloro-3-(2-fluorophenyl)-1-(3,3,4-trimethylpiperazin-1-yl)-6,6a,7,8,9,10-hexahydro-12H-pyrazino[2,1-c]pyrido[3,4-f][1,4]oxazepin-12-one, formate] |  | 760 nM | 271 nM | 
C=CC(=O)N1CCN2C(=O)c3c(N4CCN(C)C[C@@H]4C)nc(-c4c(O)cccc4Cl)c(Cl)c3OC[C@H]2C1 (single isomer, unassigned) [Z455-2] |  | 46.3 nM |  | 33 nM
